Like-named read-outs stand apart in the source and are kept apart here.
Columns and labels:
[1] = test system: erythrocytes; conditions: cited from earlier work
[2] = cited from earlier work
[3] = co-therapy with gentamicin, guinea pigs; cited from earlier work
[4] = β-thalassemia patients; cited from earlier work
[5] = cited from earlier work; remark: listed apart in the source
[6] = 14-day rat nephrotoxicity model
Text: The rat in vivo assays provided information in the form of acute toxicity, changes in Blood Urea Nitrogen (BUN) and serum creatinine levels over time, as well as histopathology changes in the kidneys of animals sacrificed at the end of the study. Elevation in BUN or serum creatinine is one of the markers routinely monitored in the clinic as an indication of aminoglycoside nephrotoxicity.

[7] = test system: HK-2 cells; experiment: HK-2 in vitro nephrotoxicity assay (CASPASEGLO caspase luminescence); format: cell-based, human
Procedure: An in vitro nephrotoxicity assay was conducted using the human kidney epithelial cell line, HK-2.
HK-2 cells were cultured in KSFM, with 5 ng/mL epidermal growth factor (EGF) and 0.05 mg/mL bovine pituitary extract (BPE). Cells were maintained at sub-confluence and used to initiate the assay when they reached 80% confluence.
Diluted compounds were added to plates. The plates were subsequently returned to the incubator overnight.
Luminescence was detected using a plate reading luminometer.
A human kidney proximal tubule cell line, HK-2 (ATCC #CRL-2190) is cultured in Keratinocyte-Serum Free Medium (K-SFM) (Invitrogen 17005-042) with 5 ng/mL of human recombinant epidermal growth factor (EGF) and 0.05 mg/mL Bovine Pituitary Extract (BPE). Culture medium containing EGF and/or BPE is not filtered subsequent to growth factor addition, and fresh growth factors are added to the culture medium after two weeks. The HK-2 cells are split so that they are 80% confluent on the day they need to be plated into 96 well plates. These cells are not allowed to become confluent.
Remove the HK-2 cells from the plate using trypsin-EDTA. Wash the plate with D-PBS. Add 0.5 mL trypsin, and incubate for 1 minute at room temperature or until cells start to lift off plate. Inactivate trypsin and harvest cells by adding prewarmed culture medium (37° C.) to the plate. […]
Thaw the CASPASEGLO reagents (CASPASEGLO 3/7 Assay, Promega G8093 10×10 mL or G8092 100 mL) at room temperature. For reagent addition to plates after 31 hour compound incubation: (i) remove plates from incubator (30.5 hours after adding compounds) for approximately 30 minutes to bring to room temperature; (ii) mix CASPASEGLO reagents according to manufacturer's instructions; (iii) add 50 μL of reagent/well to 96 well plates using BioMek®FX with tips 2 mm from bottom of reservoir well (Beckman Coulter); (iv) place plates on shaker platform and shake gently for 30 seconds; (v) incubate at room temperature for 30 minutes; (vi) place plates on shaker platform and shake gently for 30 seconds; and (vii) read plate 30-60 minutes after reagents are added, Analyst™ HT (LJL Biosystems™). The settings for the Analyst™ HT are: (i) default luminescence method; (ii) luminescence height, 1.5 mm; (iii) 5 readings per well; (iv) integration time of 100000 μs; and (v) attenuator out.
The average luminescence values are calculated along with the standard deviation of the replicates. The concentration of the aminoglycoside tested is graphed versus the corresponding luminescence reading. The area under the curve (AUC) is calculated for each experimental compound and for gentamicin. The EC50 can then be calculated for each experimental compound and gentamicin, using methods well known in the art.

[8] = patients, cited from earlier work
[9] = test system: LLC-PK1 cells; conditions: gentamicin introduced by electroporation; cited from earlier work
[10] = rats, cited from earlier work
[11] = test system: renal brush border membranes; conditions: in vitro; cited from earlier work

Compound: O=C(O)c1cccc(O)c1O [DHB, 2,3-dihydroxybenzoate]
- H2O2 induced membrane peroxidation [1]: inhibits H2O2 induced membrane peroxidation in erythrocytes
- solubility in aqueous solution [2]: poor solubility in aqueous solution
- shifts in auditory thresholds [3]: significantly lower shifts in auditory thresholds
- toxicity of oral doses for one year [4]: no toxicity was observed
- elevations in BUN and serum creatinine after gentamicin ([5]; rat, gentamicin treatment for eight days): reduced elevations in blood, urea, nitrogen (BUN) and serum creatinine
- protection from gentamicin nephrotoxicity ([5]; rats): only partial protection from gentamicin nephrotoxicity

Compound: NCC[C@H](O)C(=O)N[C@@H]1C[C@H](N)[C@@H](O[C@H]2O[C@H](CN)[C@@H](O)[C@H](O)[C@H]2O)[C@H](O)[C@H]1O[C@H]1O[C@H](CO)[C@@H](O)[C@H](N)[C@H]1O [amikacin]
- rank order of relative in vivo nephrotoxicity ([6]; rat, in vivo): followed by amikacin, neomycin, and gentamicin
- dose response curve of luminescence signal (induction of apoptosis) / EC50 [7]: did not produce a maximal response at the highest concentration tested
- rank order of nephrotoxicity by EC50 in the in vitro HK-2 assay [7]: least nephrotoxic aminoglycoside tested

Compound: CC(=O)Oc1ccccc1C(=O)O [aspirin]
- hearing loss versus gentamicin alone ([8]; intravenous gentamicin and oral aspirin): significantly less hearing loss
- side effect of aspirin treatment [8]: caused gastric bleeding in some patients

Compound: [H]/N=C(/N)N[C@H]1[C@H](O)[C@@H](O)[C@H](O[C@@H]2O[C@@H](C)[C@](O)(C=O)[C@H]2O[C@@H]2O[C@@H](CO)[C@H](O)[C@@H](O)[C@@H]2NC)[C@@H](N/C(N)=N\[H])[C@@H]1O [streptomycin]
- rank order of relative in vivo nephrotoxicity ([6]; rat, in vivo): least nephrotoxic aminoglycoside tested

Compound: gentamicin
- apoptosis response [9]: dose-dependent apoptosis response at much lower gentamicin concentrations
- rank order of relative in vivo nephrotoxicity ([6]; 14-day rat model, Example 3, FIG. 4): followed by amikacin, neomycin, and gentamicin
- rank order of nephrotoxicity by minimum concentration of compound that produced an increase in BUN ([6]; 14-day rat model, six compounds, FIG. 3A): followed by apramycin, gentamicin and neomycin, compound A, and compound B
- dose response curve of luminescence signal (induction of apoptosis) / EC50 ([7]; HK-2 cells, highest concentration tested 500 μg/mL, FIG. 2): produced a full dose response curve over the concentration range tested
- rank order of nephrotoxicity by EC50 in the in vitro HK-2 assay ([7]; six compounds, FIG. 3A): followed by apramycin, gentamicin and neomycin, compound A, and compound B

Compound: polyaspartic acid
- creatinine elevation or histopathological changes ([10]; 16 weeks after the two week treatment): no creatinine elevation or histopathological changes
- gentamicin concentration in kidneys versus gentamicin alone ([10]; end of 14 day treatment, co-dosed with polyaspartic acid): five-fold higher gentamicin concentration in their kidneys
- aminoglycoside binding to renal brush border membranes [11]: prevent aminoglycoside binding to renal brush border membranes

Reference: patent publication US20090220982A1, “COMPOSITIONS AND METHODS FOR DETERMINING NEPHROTOXICITY” (Achaogen Inc.., priority 2008, published 2009)
